Experimental data as given in ChEMBL document CHEMBL5096235, “In Silico Exploration and Biological Evaluation of Bispecific Peptides Derived from Anti-HER2 Antibodies and Peptide-Camptothecin Conjugates for HER2-Positive Breast Cancer” (J Med Chem, 2022).
Calls of active or inactive are those of the source. The calls are words filed in the database; no cut-off is given here. Residues, ends and D or L forms follow the SMILES beside them. *: point of attachment. S(CH2)2OCO2(CPT-20-yl) = CC[C@@]1(OC(=O)OCCS*)C(=O)OCc2c1cc1n(c2=O)Cc2cc3ccccc3nc2-1

How the values were obtained:
[1] = Toxicity in nude mouse xenografted with human SK-BR-3 cells assessed as effect on total protein level at 8 micromol/kg, iv administered every 3 days for 14 days; format: organism-based; conditions: in vivo, 336 h, dose 8 µmol/kg, time 14 day
SK-BR-3 [2] = experiment: Induction of apoptosis in human SK-BR-3 cells assessed as dead cells at 2 uM incubated for 24 hrs by Annexin V-FITC/PI staining based flow cytometry analysis (Rvb= 1.21%); format: functional
[3] = Toxicity in nude mouse xenografted with human SK-BR-3 cells assessed as liver damage at 8 micromol/kg, iv administered every 3 days for 14 days by H and E staining based analysis; format: organism-based; conditions: in vivo, 336 h, dose 8 µmol/kg, time 14 day
SK-BR-3 [4] = experiment: Induction of apoptosis in human SK-BR-3 cells assessed as early apoptotic cells at 2 uM incubated for 24 hrs by Annexin V-FITC/PI staining based flow cytometry analysis (Rvb= 4.37%); format: functional
[5] = molecular target: T1, DNA topoisomerase 1 (Homo sapiens) (UniProt P11387); experiment: Inhibition of topoisomerase 1 (unknown origin) assessed as relaxation of supercoiled plasmid pBR322 DNA at 100 uM preincubated for 20 mins followed by pBR322 DNA addition and measured after 30 mins by agarose gel electrophoresis analysis; conditions: time 50.0 min
T1 sequence (whole entry): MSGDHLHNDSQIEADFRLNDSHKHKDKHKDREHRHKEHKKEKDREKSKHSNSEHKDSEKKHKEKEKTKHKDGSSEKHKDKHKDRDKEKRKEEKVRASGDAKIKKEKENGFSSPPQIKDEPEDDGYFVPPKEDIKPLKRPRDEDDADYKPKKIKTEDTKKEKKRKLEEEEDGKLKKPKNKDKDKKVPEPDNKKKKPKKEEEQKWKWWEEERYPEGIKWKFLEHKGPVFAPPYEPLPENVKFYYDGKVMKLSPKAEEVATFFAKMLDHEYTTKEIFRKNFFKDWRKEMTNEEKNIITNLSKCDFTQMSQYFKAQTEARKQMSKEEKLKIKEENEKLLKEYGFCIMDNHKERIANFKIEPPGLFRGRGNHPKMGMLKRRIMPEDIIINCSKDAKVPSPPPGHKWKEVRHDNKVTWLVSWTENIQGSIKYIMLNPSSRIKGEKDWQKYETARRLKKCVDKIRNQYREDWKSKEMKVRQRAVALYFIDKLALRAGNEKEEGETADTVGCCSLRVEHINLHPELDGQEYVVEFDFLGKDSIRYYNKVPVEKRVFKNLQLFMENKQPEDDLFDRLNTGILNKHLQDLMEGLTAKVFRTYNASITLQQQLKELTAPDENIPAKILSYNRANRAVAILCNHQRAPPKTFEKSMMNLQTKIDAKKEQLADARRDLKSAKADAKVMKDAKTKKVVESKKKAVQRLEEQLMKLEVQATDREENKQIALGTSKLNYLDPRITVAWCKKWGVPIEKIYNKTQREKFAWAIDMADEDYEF

SK-BR-3 [6] = experiment: Induction of apoptosis in human SK-BR-3 cells assessed as early apoptotic cells at 1 uM incubated for 24 hrs by Annexin V-FITC/PI staining based flow cytometry analysis (Rvb= 4.37%); format: functional
SK-BR-3 [7] = experiment: Induction of apoptosis in human SK-BR-3 cells assessed as live cells at 1 uM incubated for 24 hrs by Annexin V-FITC/PI staining based flow cytometry analysis (Rvb= 89.4%); format: functional
[8] = molecular target: T1, DNA topoisomerase 1 (Homo sapiens); experiment: Inhibition of topoisomerase 1 (unknown origin) assessed as relaxation of supercoiled plasmid pBR322 DNA at 10 uM preincubated for 20 mins followed by pBR322 DNA addition and measured after 30 mins by agarose gel electrophoresis analysis; conditions: time 50.0 min
[9] = Renal toxicity in nude mouse xenografted with human SK-BR-3 cells assessed as effect on blood urea nitrogen level at 8 micromol/kg, iv administered every 3 days for 14 days; format: organism-based; conditions: in vivo, 336 h, dose 8 µmol/kg, time 14 day
[10] = Hemolytic activity in rat erythrocytes at 3.125 to 100 uM by microplate reader analysis relative to control; format: toxicity, cell-based, Erythrocyte; conditions: dose 3.125-100 µM, read-out: Activity

Structure (SMILES): CC[C@H](C)[C@H](NC(=O)[C@@H](N)CCCNC(=N)N)C(=O)N[C@@H](CCCCN)C(=O)N1CCC[C@H]1C(=O)N[C@@H](CCCNC(=N)N)C(=O)N[C@@H](CCCCN)C(=O)NCC(=O)N[C@@H](Cc1ccc(O)cc1)C(=O)N[C@H](C(=O)N[C@@H](CCCNC(=N)N)C(=O)NCC(=O)N[C@@H](CSSCCOC(=O)O[C@]1(CC)C(=O)OCc2c1cc1n(c2=O)Cc2cc3ccccc3nc2-1)C(=O)NCC(=O)N[C@@H](CSSCCOC(=O)O[C@]1(CC)C(=O)OCC2=C1C=C1c3nc4ccccc4cc3NC1C2=O)C(=O)NC(=O)C[C@H](NC(=O)CN)C(=O)N1CCC[C@H]1C(=O)N[C@@H](CC(N)=O)C(=O)N[C@@H](Cc1c[nH]c2ccccc12)C(=O)NCC(=O)N[C@@H](CCCNC(=N)N)C(=O)N[C@@H](CO)C(=O)N[C@@H](Cc1c[nH]c2ccccc12)C(=O)N[C@@H](Cc1ccc(O)cc1)C(=O)N[C@@H](CC(N)=O)C(=O)N[C@@H](CCC(N)=O)C(=O)N[C@@H](CCCNC(=N)N)C(=O)N[C@@H](Cc1ccccc1)C(=O)N[C@@H](CCCCN)C(N)=O)[C@@H](C)O (stereo partly drawn)
- Activity [1]: Non-Toxic
- Activity (SK-BR-3 [2]): 0.28%
- Activity [3]: Non-Toxic
- Activity (SK-BR-3 [4]): 41%
- inhibition [5]: Active
- Activity (SK-BR-3 [6]): 39.8%
- Activity (SK-BR-3 [7]): 51.2%
- inhibition [8]: Active
- Activity [9]: Toxic

Structure (SMILES): CC[C@H](C)[C@H](NC(=O)[C@@H](N)CCCNC(=N)N)C(=O)N[C@@H](CCCCN)C(=O)N1CCC[C@H]1C(=O)N[C@@H](CCCNC(=N)N)C(=O)N[C@@H](CCCCN)C(=O)NCC(=O)N[C@@H](Cc1ccc(O)cc1)C(=O)N[C@H](C(=O)N[C@@H](CCCNC(=N)N)C(=O)NCC(=O)N[C@@H](CSSCCOC(=O)O[C@]1(CC)C(=O)OCc2c1cc1n(c2=O)Cc2cc3ccccc3nc2-1)C(=O)NCC(=O)N[C@@H](CC(N)=O)C(=O)N1CCC[C@H]1C(=O)N[C@@H](CC(N)=O)C(=O)N[C@@H](Cc1c[nH]c2ccccc12)C(=O)NCC(=O)N[C@@H](CCCNC(=N)N)C(=O)N[C@@H](CO)C(=O)N[C@@H](Cc1c[nH]c2ccccc12)C(=O)N[C@@H](Cc1ccc(O)cc1)C(=O)N[C@@H](CC(N)=O)C(=O)N[C@@H](CCC(N)=O)C(=O)N[C@@H](CCCNC(=N)N)C(=O)N[C@@H](Cc1ccccc1)C(=O)N[C@@H](CCCCN)C(N)=O)[C@@H](C)O (H-RIKPRKGYTRGC(S(CH2)2OCO2(CPT-20-yl))GNPNWGRSWYNQRFK-NH2)
- Activity [1]: Non-Toxic
- Activity (SK-BR-3 [2]): 0.64%
- Activity [3]: Non-Toxic
- hemolysis at 100 µM [10]: < 10%
- Activity (SK-BR-3 [4]): 39.4%
- inhibition [5]: Active
- Activity (SK-BR-3 [6]): 34.9%
- Activity (SK-BR-3 [7]): 57.6%
- Activity [9]: Non-Toxic
